Reference: patent publication US9326978B2, “A3 adenosine receptor allosteric modulators” (The United States of America, Represented by the Secretary, …, priority 2006, dated 2016)
Several values for one entry are separate records, joined by “and”; a condition that tells them apart may be missing. Equal entries are not always repeated. Where two headings read alike, the source gives them in different places.

Columns and labels:
human A3ARs [1] = target: T1, human A3ARs (Homo sapiens (Human), UniProt P0DMS8); test: Dissociation kinetics of [125I]I-AB-MECA from human A3ARs; format: binding
T1 sequence (P0DMS8 whole entry): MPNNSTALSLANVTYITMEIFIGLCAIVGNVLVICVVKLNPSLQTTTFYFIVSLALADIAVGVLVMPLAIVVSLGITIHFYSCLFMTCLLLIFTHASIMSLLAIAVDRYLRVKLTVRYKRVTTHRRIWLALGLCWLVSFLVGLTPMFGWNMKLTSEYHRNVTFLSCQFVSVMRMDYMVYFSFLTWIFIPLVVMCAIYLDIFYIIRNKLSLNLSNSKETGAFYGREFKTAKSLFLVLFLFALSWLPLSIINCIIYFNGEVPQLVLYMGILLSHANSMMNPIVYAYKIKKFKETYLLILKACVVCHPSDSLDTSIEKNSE
Experimental: The dissociation of [^125I]I-AB-MECA was measured as follows. Membranes (20 μg) were preincubated at 25° C. with 0.5 nM [^125I]I-AB-MECA, in a total volume of 100 μl of Tris-HCl buffer (50 mM, pH 8.0) containing 10 mM MgCl2, and 1 mM EDTA for 60 min. The dissociation was then initiated by the addition of 3 μM Cl-IB-MECA with or without allosteric modulators. The time course of dissociation of total binding was measured by rapid filtration at appropriate time intervals. Nonspecific binding was measured after 60-min incubation in the presence of 3 μM Cl-IB-MECA. Further assay was as described above.

hA3AR = hA3AR (Homo sapiens (Human), UniProt P0DMS8); test: GTPγS binding at hA3AR; format: biochemical
hA3AR, sequence (P0DMS8 whole entry): as above

human A1AR = human A1AR (Homo sapiens (Human), UniProt P30542); test: Binding assay to the human A1AR ([3H]R-PIA); conditions: 1 h, 10 μM, CHO cells, read-out: hA1AR % displ. at 10 μM
human A1AR, sequence (P30542 whole entry): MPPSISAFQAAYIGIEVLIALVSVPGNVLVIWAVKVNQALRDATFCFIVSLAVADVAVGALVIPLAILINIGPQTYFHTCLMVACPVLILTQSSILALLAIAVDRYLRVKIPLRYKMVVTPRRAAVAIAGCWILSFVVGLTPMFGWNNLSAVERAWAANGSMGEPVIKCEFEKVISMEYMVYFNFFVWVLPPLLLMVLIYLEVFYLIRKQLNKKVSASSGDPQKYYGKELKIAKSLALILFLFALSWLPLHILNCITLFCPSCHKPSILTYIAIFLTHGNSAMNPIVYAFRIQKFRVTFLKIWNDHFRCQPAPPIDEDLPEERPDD
Experimental: CHO (Chinese hamster ovary) cells expressing the recombinant human ARs (HEK-293 cells were used for the human A2AAR) were cultured in DMEM and F12 (1:1) supplemented with 10% fetal bovine serum, 100 units/ml penicillin, […] streptomycin and 2 μmol/ml glutamine. Cells were harvested by trypsinization. After homogenization and suspension, cells were centrifuged at 500 g for 10 min, and the pellet was re-suspended in 50 mM Tris.HCl buffer (pH 7.4) containing 10 mM MgCl2. The suspension was homogenized with an electric homogenizer for 10 sec, and was then re-centrifuged at 20,000 g for 20 min at 4° C. The resultant pellets were resuspended in buffer in the presence of 3 Units/mL adenosine deaminase, and the suspension was stored at −80° C. until the binding experiments. The protein concentration was measured using the Bradford assay.
For binding to the human A1AR, [^3H]R-PIA (2 nM) was incubated with membranes (40 μg/tube) from CHO cells stably expressing the human A1AR at 25° C. for 60 min in 50 mM Tris.HCl buffer (pH 7.4; MgCl2, 10 mM) in a total assay volume of 200 μL. Nonspecific binding was determined using 10 μM of N^6-cyclopentyladenosine. For human A2A AR binding, membranes (20 μg/tube) from HEK-293 cells stably expressing the human A2A AR were incubated with 15 nM [^3H]CGS21680 at 25° C. for 60 min in 200 μL of 50 mM Tris.HCl, pH 7.4, containing 10 mM MgCl2. N-5′-ethyluronamidoadenosine (10 μM) was used to define nonspecific binding. Reaction was terminated by filtration with GF/B filters.

myeloid system = test: Effect on the myeloid system of naïve mice (differential blood count); format: in vivo; conditions: naïve ICR mice, orally 100 μg/kg thrice daily for two days; blood 24 and 48 hours after last administration; vs control
Experimental: A stock solution of imidazoquinoline derivative 45 was prepared by dissolving the same in DMSO. Further dilutions for treatment were performed in PBS. As a control, an equivalent amount of DMSO in PBS was used.
To test the effect of imidazoquinoline derivative 45 on the myeloid system, the compound was orally administered at a dose of 100 μg/kg, thrice daily to ICR mice, for two consecutive days. Blood samples were withdrawn 24 and 48 hours after the last drug administration. A differential blood count was performed.

human A3ARs [2] = target: T1, human A3ARs; test: Cyclic AMP accumulation assay, efficacy at hA3AR; format: cell-based; conditions: compared to maximal effect by 2-Cl-IB-MECA alone (control = 100%)
Experimental: Intracellular cyclic AMP levels were measured with a competitive protein binding method (Nordstedt and Fredholm, 1990). CHO cells that expressed recombinant human A3ARs were harvested by trypsinization. After centrifugation and resuspension in medium, cells were plated in 24-well plates in 0.5 ml medium. After 24 hr, the medium was removed and cells were washed three times with 1 ml DMEM, containing 50 mM HEPES, pH 7.4. Cells were then treated with agonists and/or test compounds in the presence of rolipram (10 μM) and adenosine deaminase (3 units/ml). After 45 min forskolin (10 μM) was added to the medium, and incubation was continued an additional 15 min. The reaction was terminated by removing the supernatant, and cells were lysed upon the addition of 200 μL of 0.1 M ice-cold HCl. The cell lysate was resuspended and stored at −20° C. For determination of cyclic AMP production, protein kinase A (PKA) was incubated with [^3H]cyclic AMP (2 nM) in K2HPO4/EDTA buffer (K2HPO4, 150 mM; EDTA, 10 mM), 20 μL of the cell lysate, and 30 μL 0.1 M HCl or 50 μL of cyclic AMP solution (0-16 pmol/200 μL for standard curve). Bound radioactivity was separated by rapid filtration through Whatman GF/C filters and washed once with cold buffer. Bound radioactivity was measured by liquid scintillation spectrometry.

[3] = system: adjuvant induced arthritis; test: Adjuvant induced arthritis (AIA) model; format: in vivo; conditions: AIA rats, orally twice daily 100 μg/kg from onset of disease; vs control
Experimental: Adjuvant induced arthritis model (model for rheumatoid arthritis (RA)) was established in rats by immunizing the animals with an emulsion contacting Mycobacterium tuberculosis in Freund's adjuvant (Animal Models for Autoimmune and Inflammatory disease:Adjuvant Arthritis in the Rat. Current Protocols in Immunology, Supplement 19, page 15.4.2.). Treatment with imidazoquinoline derivative 45 was initiated upon onset of disease. The imidazoquinoline derivative 45 was administered orally twice daily at a dose of 100 μg/kg.
Evaluation of disease development was carried out daily, starting upon onset of disease until the end of the study. Intensity of arthritis was scored by grading each paw from 0-4 on erythema, swelling and deformity of the joint, every day: 0=no erythema or swelling; 1=slight erythema or swelling of one of the toes or fingers; 2=erythema and swelling of more than one toe or finger; 3=erythema and swelling of the ankle or wrist; 4=complete erythema and swelling of toes or fingers and ankles or wrist, and inability to bend the ankle or wrist. All scores of the four legs from each rat are added to give up to a maximum arthritic score of 16.

hA2BAR = hA2BAR (Homo sapiens (Human), UniProt P29275); test: Effect on NECA-induced cyclic AMP accumulation at A2B receptor; also: NECA (150 nM)-induced cyclic AMP accumulation; format: cell-based; conditions: read-out: hA2BAR % inhib. at 10 μM
hA2BAR, sequence (P29275 whole entry): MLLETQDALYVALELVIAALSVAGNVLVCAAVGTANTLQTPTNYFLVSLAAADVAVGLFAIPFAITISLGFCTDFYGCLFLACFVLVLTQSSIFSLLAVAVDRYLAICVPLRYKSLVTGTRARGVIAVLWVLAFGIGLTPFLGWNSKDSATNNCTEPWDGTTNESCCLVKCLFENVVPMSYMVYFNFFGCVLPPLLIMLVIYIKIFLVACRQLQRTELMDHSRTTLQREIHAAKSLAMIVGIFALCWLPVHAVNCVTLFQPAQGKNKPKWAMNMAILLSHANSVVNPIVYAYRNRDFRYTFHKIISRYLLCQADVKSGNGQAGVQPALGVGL

Clc1ccc(Nc2nc3ccccc3c3[nH]c(C4CCCCC4)nc23)cc1Cl [Compound 45, N-(3,4-Dichloro-phenyl)-2-cyclohexyl-1H-imidazo[4,5-c]quinolin-4-amine]
activity at 10 µM (human A3ARs [1]; 0.5 h, % decrease of dissociation at 30 min, residual binding of [125I]AB-MECA after 30 min = 100%, Table 2, read-out: hA3AR Ag. Dissociation at 10 μM): 173 ± 5% | hA3R Ag. Dissociation (%) at 10 μM (human A3ARs [1]; % decrease of [125I]I-AB-MECA dissociation at 30 min (control = 100%), Table 3): 173 ± 5% | Enhancement of GTPγS binding (%) at hA3AR at 10 μM (hA3AR; 10 μM Cl-IB-MECA alone = 100%, Table 3): 194 ± 11% and 177% | Relative efficacy (%) at hA3AR at 10 μM (GTPγS binding) in absence of agonist (hA3AR; absence of agonist, 10 μM Cl-IB-MECA alone = 100%): 6% | Enhancement of GTP[…]S binding (%) at hA3AR at 10 μM (hA3AR; compared to maximal effect by 2-Cl-IB-MECA alone (control), Table 4): 194 ± 11% | inhibition at 10 µM (human A1AR; [3H]R-PIA, Table 3): < 10% | inhibition at 10 µM (human A1AR; [3H]R-PIA, Table 4): < 10% | inhibition at 10 µM (human A1AR; [3H]R-PIA (2.0 nM), Table 2): -2% | number of neutrophils (myeloid system): increased | number of white blood cells (WBC) (myeloid system): increased | % Increase of efficacy at hA3AR at 10 μM (human A3ARs [2]): 145 ± 7% | clinical score (arthritic score, max 16) [3]: reduction in clinical score | inhibition at 10 µM (hA2BAR): -5.6%
